In patent US20030175824A1, “Drug candidate screening systems based on micropatterned hydrogels and microfluidic systems” (priority 2002, published 2003):

Test system: murine 3T3 fibroblasts
Conditions: 0.05% sodium azide in PBS; cells stained red
Procedure: Hydrogel microstructures encapsulating murine 3T3 fibroblasts were fabricated using proximity photolithography. A PEG-diacrylate (PEG-DA, MW 575, Sigma-Aldrich or MW 4000, Polysciences) precursor solution containing 0.5% (w/w) DAROCUR 1173 (1-phenyl-2-hydroxy-2-methyl-1-propanone, Ciba Specialty Chemicals) as a photoinitiator was mixed with a cell suspension in cell culture media to produce a cell density about 4 to 5×10^6 cells/mL in the gel precursor solution. Fibroblasts were cultured on tissue culture polystyrene in Dulbecco's modified Eagle media (DMEM with 4.5 g/L glucose and 10% FBS, Sigma-Aldrich) and incubated at 37° C. in 5% CO2 and 95% air until near confluence. Cells were detached from culture flasks by trypsinization with 0.25% trypsin and 0.13% EDTA in phosphate buffered saline. Cells were transferred back to cell culture media and then added to the gel precursor solution. […]
The viability of individual cells in hydrogel microstructures with diameters of 600 μm and 50 μm was investigated using Live/Dead Viability/Cytotoxicity fluorescence assay (Molecular Probes, Inc.) that stains live cells green and dead cells red. […]
The viability of cells encapsulated in hydrogel was also measured using an MTT (3(4,5-dimethylthiazol-2-yl)-2,5-diphenyl tetrazolium bromide) assay.

For `[N-]=[N+]=[N-]` [sodium azide], the “effect on encapsulated cells (control, LIVE/DEAD staining)” value was “killed the cells”.
